experiment: gradient 5% acetonitrile 3 min, to 50% in 2 min, to 85% in 15 min, held 3 min, 100 µL/min; conditions: column: Zorbax Extend-C18 2.1 x 50 mm; eluents: water / acetonitrile, 0.1% formic acid
How it was run: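 Each retention time is based on an adduct peak selected computationally and verified by manual inspection. Measurements used HPLC–quadrupole time-of-flight mass spectrometry in positive and negative ionization mode on mixtures of ~100 pure standards. Chromatography ran on a Zorbax Extend-C18 column (2.1 × 50 mm, 1.8 μm) at 100 μL/min with water and acetonitrile, each containing 0.1% formic acid, and dead and dwell volumes of 40 μL and 900 μL.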

Compound | RP-LC retention time [s]
COCc1cc(=O)n(CC(=O)Nc2ccc(C)c(C)c2)c(N)n1 | 647
OC[C@@H]1CNC[C@H]1C1CCN(Cc2cccc(Cl)c2F)CC1 | 806
COc1ccc(Cl)cc1NC(=O)CN1C(=O)CC(C)Sc2ccccc21 (configuration not stated) | 926
Cc1ccc(Cl)cc1N(C)C(=O)C1CCCN(c2ncnc3c2nc2n3CCCCC2)C1 (configuration not stated) | 918
CCCn1c(=O)c(N2CCN(C(=O)C3CC3)CC2)nc2ccccc21 | 912
CCN1CCN(CCNC(=O)c2c(-c3ccc(Br)s3)noc2C)CC1 | 618
O=C(Cc1ccsc1)Nc1ccc2ncnc(N3CCCCC3)c2c1 | 666
NC(=O)OCCCc1ccccc1 | 817
O=C(c1cccc(-n2cnnn2)c1)N1CCN(Cc2nc(-c3ccc(F)cc3)cs2)CC1 | 666
CCOc1ccc(N(C)C(=O)C2CCCN2S(=O)(=O)c2cc(C(=O)OC)n(C)c2)cc1 (configuration not stated) | 825
CC(C)c1nn2c(S(=O)(=O)NC3CCCCC3)c(C(C)C)nc2s1 | 1110
O=C(NCc1cccs1)c1c(O)c2cccnc2n(-c2cccc(F)c2)c1=O | 1120
O=C(c1cnccn1)N1CCCC1c1nc(-c2cccc(C(F)(F)F)c2)no1 (configuration not stated) | 798
COc1ccc(C)cc1NC(=O)c1nc(-c2cn(Cc3ccc(F)cc3)nn2)no1 | 961
O=C(CN1CCN(C(=O)Nc2ccc(Br)cc2)CC1=O)N1CCCCC1 | 701
COc1ccc(-c2ncc3c(n2)CCN(C(=O)Nc2ccccc2Cl)C3)cc1 | 948
COc1ccc(NC(=O)c2cn(-c3cc(N4CCCC(C)C4)ncn3)cn2)c(OC)c1 (configuration not stated) | 1170
O=C(Nc1nccs1)c1cc(Cl)sc1Cl | 836
Cc1nc(Nc2ccc(Cl)cn2)sc1C(=O)NCCN1CCCCC1 | 637

Compound | RP-LC retention time [s]
O=C(Cn1cccc1-c1nnc(-c2ccccc2)o1)N1CCN(c2ccccc2)CC1 | 984
O=C(NC(c1ccccc1)c1nnc(N2CCOCC2)o1)c1ccc(Cl)cc1 (configuration not stated) | 781
CCNC(=O)C1CCN(S(C)(=O)=O)c2cc(C)ccc2O1 (configuration not stated) | 696
COc1ccc(NS(=O)(=O)c2ccc(-c3c(C)noc3C)cc2)cc1OC | 806
N=C(N)c1ccc2cc(OC(=O)c3ccc(N=C(N)N)cc3)ccc2c1 | 595
O=C(Cc1csc2ccccc12)N1CCN(C(=O)Nc2ccccc2Cl)CC1 | 889
CCc1ccc(S(=O)(=O)N2CCCC2c2nc(-c3ccc(Cl)cc3)no2)cc1 (configuration not stated) | 1290
COc1cccc2sc(NC(=O)Cc3ccc(Cl)s3)nc12 | 923
COc1cc(NC(=O)N2CCCC2c2ccccc2C)cc(OC)c1OC (configuration not stated) | 865
CCN1CCN(C(=O)C2CCN(S(=O)(=O)c3cc(-c4noc(C)n4)cs3)CC2)CC1 | 615
CC1CCN(c2ncc3c(n2)CCC(C(=O)Nc2ccc(N4CCOCC4)cc2)C3)CC1 (configuration not stated) | 721
Cc1noc(C)c1S(=O)(=O)N1CCC2(CC1)N(c1ccccc1)C(=O)CS2=O (configuration not stated) | 708
CC(=O)N1CCc2sc(C(=O)N3CCN(c4ccccc4)CC3)cc2C1 | 732
COC(=O)CC(=O)Nc1ccc(-c2nc(-c3ccccc3)co2)cc1 | 906
CCc1nc(N2CCNCC2)c(C#N)c2c1COC(C)(C)C2 | 627
Cc1cc(NC(=O)C2CCCN(C(=O)C3Sc4ccccc4NC3=O)C2)ccc1Br (configuration not stated) | 901
COc1ccc(C)cc1NC(=O)C1CCN(S(=O)(=O)c2ccc3c(c2)sc(=O)n3C)CC1 | 827
CNC(=O)C1CN(C(=O)Cc2c[nH]c3ccccc23)CC12CCCC2 (configuration not stated) | 596

— the METLIN SMRT retention time set (Domingo-Almenara et al. 2019)
